US7384931B2, “Constrained compounds as CGRP-receptor antagonists” (Bristol-Myers Squibb Company, priority 2004, dated 2008)
pIC50: −log10 of the molar value.

molecular target: CGRP receptor (Homo sapiens, UniProt O60894+Q16602); experiment: CGRP radioligand binding assay ([125I]-CGRP displacement, SK-N-MC homogenate); design: endogenous in cells; host or cells: SK-N-MC cells (homogenate/membrane pellet); settings: displacement of [125I]-CGRP, room temperature 2 h
Method: CGRP Binding Assay. Tissue Culture. SK—N-MC cells were grown at 37° C. in 5% CO2 as a monolayer in medium consisting of MEM with Earle's salts and L-glutamine (Gibco) supplemented with 10% fetal bovine serum (Gibco). Cell Pellets. The cells were rinsed twice with phosphate-buffered saline (155 mM NaCl, 3.3 mM Na2HPO4, 1.1 mM KH2PO4, pH 7.4), and incubated for 5-10 min. at 4° C. in hypotonic lysis buffer consisting of 10 mM Tris (pH 7.4) and 5 mM EDTA. The cells were transferred from plates to polypropylene tubes (16×100 mm) and homogenized using a polytron. Homogenates were centrifuged at 32,000×g for 30 min. The pellets were resuspended in cold hypotonic lysis buffer with 0.1% mammalian protease inhibitor cocktail (Sigma) and assayed for protein concentration. The SK—N-MC homogenate was then aliquoted and stored at −80° C. until needed.
Radioligand Binding Assay. The compounds of invention were solubilized and carried through serial dilutions using 100% DMSO. Aliquots from the compound serial dilutions were further diluted 25 fold into assay buffer (50 mM Tris-Cl pH 7.5, 5 mM MgCl2, 0.005% Triton X-100) and transferred (volume 50 μl) into 96 well assay plates. [^125I]-CGRP (Amersham Biosciences) was diluted to 60 pM in assay buffer and a volume of 50 μl was added to each well. SK—N-MC pellets were thawed, diluted in assay buffer with fresh 0.1% mammalian protease inhibitor cocktail (Sigma), and homogenized again. SK—N-MC homogenate (5 μg/well) was added in a volume of 100 μl. The assay plates were then incubated at room temperature for 2 h. Assays were stopped by addition of excess cold wash buffer (20 mM Tris-Cl pH 7.5, 0.1% BSA) immediately followed by filtration over glass fiber filters (Whatman GF/B) previously soaked in 0.5% PEI. Non-specific binding was defined with 1 μM beta-CGRP. Protein bound radioactivity was determined using a gamma or scintillation counter. The IC50 was defined as the concentration of a compound of invention required to displace 50% of radioligand binding.

Sequence of CGRP receptor (Q16602 23-461): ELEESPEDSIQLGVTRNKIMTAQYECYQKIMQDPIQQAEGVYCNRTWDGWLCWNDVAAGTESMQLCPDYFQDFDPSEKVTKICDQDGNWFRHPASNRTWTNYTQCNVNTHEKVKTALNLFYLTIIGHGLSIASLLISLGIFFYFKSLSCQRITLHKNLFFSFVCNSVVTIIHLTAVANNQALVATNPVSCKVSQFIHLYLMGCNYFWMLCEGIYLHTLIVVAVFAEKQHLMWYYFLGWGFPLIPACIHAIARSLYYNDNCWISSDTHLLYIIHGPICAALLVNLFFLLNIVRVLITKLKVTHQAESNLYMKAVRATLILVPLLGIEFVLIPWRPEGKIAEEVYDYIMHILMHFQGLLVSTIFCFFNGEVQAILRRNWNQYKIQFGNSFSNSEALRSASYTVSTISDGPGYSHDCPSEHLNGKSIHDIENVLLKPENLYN
Sequence of CGRP receptor (O60894 27-148): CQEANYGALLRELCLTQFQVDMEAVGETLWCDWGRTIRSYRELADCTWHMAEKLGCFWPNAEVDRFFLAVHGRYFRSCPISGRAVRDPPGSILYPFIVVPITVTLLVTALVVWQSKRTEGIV

SMILES | pIC50
CC(C)(C)CN1Cc2c(cc(Cl)c3[nH]ncc23)C[C@@H](CC(=O)Nc2ccc3c(c2)CCC2(C3)NC(=O)NC2=O)C1=O (mixture of isomers) [Example 86, (±)-1-[[(7S)-4-chloro-9-(2,2-dimethylpropyl)-3,6,7,8,9,10-hexahydro-8-oxoazepino[3,4-e]indazol-7-yl]yacetyl]-Amino-3′,4′-dihydro-^1H-spiro[imidazolidine-4,2′naphthalene]-2,5-dione] | 8.00 to 10.00
CC(C)(C)CN1Cc2c(cc(Cl)c3[nH]ncc23)C[C@@H](CC(=O)Nc2ccc3c(c2)CC2(C3)NC(=O)NC2=O)C1=O (mixture of isomers) [Example 87, (±)-1-[[(7S)-4-chloro-9-(2,2-dimethylpropyl)-3,6,7,8,9,10-hexahydro-8-oxoazepino[3,4-e]indazol-7-yl]acetyl]-Amino-spiro[imidazolidine-4,2′-indane]-2,5-dione] | 7.00 to 8.00
CN1Cc2c(ccc3[nH]ncc23)C[C@@H](NC(=O)N2CCC(N3Cc4ccccc4NC3=O)CC2)C1=O [Example 2, 4-(2-Oxo-1,4-dihydro-2H-quinazolin-3-yl)-piperidine-1-carboxylic acid (9-methyl-8-oxo-3,6,7,8,9,10-hexahydro-2,3,9-triaza-(R)-cyclohepta[e]inden-7-yl)-amide] | 6.00 to 7.00
O=C(N[C@@H]1Cc2ccc3[nH]ncc3c2CN(CCN2CCCCC2)C1=O)N1CCC(N2Cc3ccccc3NC2=O)CC1 [Example 3, 4-(2-Oxo-1,4-dihydro-2H-quinazolin-3-yl)-piperidine-1-carboxylic acid [8-oxo-9-(2-piperidin-1-yl-ethyl)-3,6,7,8,9,10-hexahydro-2,3,9-triaza-(R)-cyclohepta[e]inden-7-yl]-amide] | 6.00 to 7.00
O=C(N[C@@H]1Cc2ccc3[nH]ncc3c2CN(CCN2CCCC2)C1=O)N1CCC(N2Cc3ccccc3NC2=O)CC1 [Example 4, 4-(2-Oxo-1,4-dihydro-2H-quinazolin-3-yl)-piperidine-1-carboxylic acid [8-oxo-9-(2-pyrrolidin-1-yl-ethyl)-3,6,7,8,9,10-hexahydro-2,3,9-triaza-(R)-cyclohepta[e]inden-7-yl]-amide] | 6.00 to 7.00
CN(C)CCN1Cc2c(ccc3[nH]ncc23)C[C@@H](NC(=O)N2CCC(N3Cc4ccccc4NC3=O)CC2)C1=O [Example 5, 4-(2-Oxo-1,4-dihydro-2H-quinazolin-3-yl)-piperidine-1-carboxylic acid [9-(2-dimethylamino-ethyl)-8-oxo-3,6,7,8,9,10-hexahydro-2,3,9-triaza-(R)-cyclohepta[e]inden-7-yl]-amide] | 6.00 to 7.00
O=C1Nc2ccccc2C2(CCN(C(=O)N[C@@H]3Cc4ccc5[nH]ncc5c4CN(CCN4CCOCC4)C3=O)CC2)N1 [Example 8, ′H-Spiro[piperidine-4,4′-quinazolin]-2′(3′H)-one-1-carboxylic acid [9-(2-morpholin-4-yl-ethyl)-8-oxo-3,6,7,8,9,10-hexahydro-2,3,9-triaza-(R)-cyclohepta[e]inden-7-yl]-amide] | < 6.00
C[C@@H](c1ccccc1)N1Cc2c(ccc3[nH]ncc23)C[C@@H](NC(=O)N2CCC3(CC2)NC(=O)Nc2ccccc23)C1=O [Example 9, ′^1H-Spiro[piperidine-4,4′-quinazolin]-2′(3′H)-one-1-carboxylic acid [8-oxo-9-(1-(S)-phenyl-ethyl)-3,6,7,8,9,10-hexahydro-2,3,9-triaza-(R)-cyclohepta[e]inden-7-yl]-amide] | 6.00 to 7.00
O=C(N[C@@H]1Cc2ccc3[nH]ncc3c2CN(Cc2ccc(C(F)(F)F)cc2)C1=O)N1CCC(N2Cc3ccccc3NC2=O)CC1 [Example 13, 4-(2-Oxo-1,4-dihydro-2H-quinazolin-3-yl)-piperidine-1-carboxylic acid [8-oxo-9-(4-trifluoromethyl-benzyl)-3,6,7,8,9,10-hexahydro-2,3,9-triaza-(R)-cyclohepta[e]inden-7-yl]-amide] | 7.00 to 8.00
